Earlier results as cited in patent US8877241B2 (Egalet Ltd., priority 2003, dated 2014).

Settings: single dose of 10 mg oral morphine, plain tablet composition

Structure (SMILES): CN1CC[C@]23c4c5ccc(O)c4O[C@H]2[C@@H](O)C=C[C@H]3[C@H]1C5 [morphine]
- average duration of action: 4 to 5 h
